Here are results for three molecules from patent US9457019B2, “Methods for inhibiting tie-2 kinase useful in the treatment of cancer” (Deciphera Pharmaceuticals, LLC, priority 2013, dated 2016).

Assay [1] has as its system PyMT syngeneic breast cancer implant mouse model. In words: PyMT syngeneic breast cancer model lung metastasis evaluation, Compound 1 dosed intermittently with paclitaxel. The class given is in vivo. The note with it: Compound 1 oral twice weekly, paclitaxel IV every five days, 12 days. As for the experimental part: (§1) PyMT Syngeneic Breast Cancer Model Lung Metastasis Evaluation
(§2) Briefly, 1×10^6 cells (dissociated from PyMT tumor fragments and stored frozen in cell-freezing medium) in 0.1 mL total volume were implanted into the fourth mammary fat pad on the left side of female mice (FVB/NJ, JAXWEST:RB05 mice from Jackson Labs). A total of three mice were implanted in each group. Molecular Imaging, Inc.'s Animal Care and Use Committee approved all the experimental protocols and conducted experiments in compliance with all the laws, regulations and guidelines of the National Institutes of Health (NIH). […] Animals were dosed for 12 days. Body weights and tumor measurements were recorded three times weekly.
(§3) At the end of study, lung tissues were excised and placed in formalin. Formalin-fixed lung samples were then placed in paraffin blocks. Each lung block had three slides with two levels per slide cut and stained with Hematoxylin and Eosin. Metastatic lung nodules were counted via microscopy.

Assay [2] has the same test system. Description: PyMT syngeneic breast cancer model primary tumor TIE2 cell accumulation (TIE2 staining). The note with it: Compound 1 oral twice daily, paclitaxel IV every five days, 21 days. The class given is in vivo.
Assay [3] has the same test system. In words: PyMT syngeneic breast cancer model primary tumor growth. The class given is in vivo. The note with it: Compound 1 oral twice daily, paclitaxel IV every five days, 21 days. As for the experimental part:
PyMT Syngeneic Breast Cancer Model Primary Tumor Growth
as §2, with “tumor fragments)” for “tumor fragments and stored frozen in cell-freezing medium)”, “of 10” for “of three”, “for 21” for “for 12”, “weekly. Tumor burden (mg) was estimated from caliper measurements by the formula for the volume of a prolate ellipsoid assuming unit density as: Tumor burden (mg)=(L×W^2)/2, where L and W are the respective orthogonal tumor length and width measurements (mm).” for “weekly.”

Assay [4] shares this test system. Description: PyMT syngeneic breast cancer model primary tumor macrophage accumulation (F4/80 staining). The class given is in vivo. The note with it: Compound 1 oral twice daily, paclitaxel IV every five days, 21 days.
Procedure: PyMT Syngeneic Breast Cancer Model Primary Tumor Macrophage Accumulation
Briefly, 1×10^6 cells (dissociated from PyMT tumor fragments) in 0.1 mL total volume were implanted into the fourth mammary fat pad on the left side of female mice (FVB/NJ, JAXWEST:RB05 mice from Jackson Labs). A total of 10 mice were implanted in each group. […] Animals were dosed for 21 days. Body weights and tumor measurements were recorded three times weekly.
At the end of study, tumors were excised and placed in formalin. Formalin-fixed tumor samples were then placed in paraffin blocks. Formalin fixed-paraffin embedded tissue slides were deparaffinized with xylene and hydrated to distilled water through a graduated series of alcohol rinses. Antigenic retrieval was performed using Dako's PT Link Module with a Tris/EDTA buffer target retrieval solution at 95° C. for 20 minutes. Once the slides cooled down, they were loaded onto a Dako AutostainerPlusLink for immunohistochemical staining at room temperature with F4/80 and CD31 antibodies, to stain for macrophages and endothelial cells, respectively. Endogenous peroxidase and alkaline phosphatase activity in the tissues was quenched with a Dual Endogenous Enzyme Block solution (Dako, S2003) for 5 minutes. […] Slides were scored for F4/80 staining using a scale of 0, no visible staining; 1, weak staining; 2, moderate staining; 3 strong staining.
Assay [5] shares this test system. Description: PyMT syngeneic breast cancer model survival evaluation. It counts as in vivo. Particulars: Compound 1 oral once or twice weekly, eribulin at 0.1 mg/kg IV three times weekly; tumors resected three days after treatment began. On the procedure:
PyMT Syngeneic Breast Cancer Model Survival Evaluation
Briefly, 1×10^6 cells (dissociated from PyMT tumor fragments and stored frozen in cell-freezing medium) in 0.1 mL total volume were implanted into the fourth mammary fat pad on the left side of female mice (FVB/NJ, JAXWEST:RB05 mice from Jackson Labs). A total of ten mice were implanted in each group. Molecular Imaging, Inc.'s Animal Care and Use Committee approved all the experimental protocols and conducted experiments in compliance with all the laws, regulations and guidelines of the National Institutes of Health (NIH). […] Tumors were then resected three days after treatment began. Animals were then dosed for the duration of the survival experiment. Body weights and tumor measurements were recorded three times weekly.

The test system is the same in assay [6]. Description: PyMT syngeneic breast cancer model lung metastasis evaluation, Compound 1 dosed intermittently with eribulin. The class given is in vivo. The note with it: Compound 1 oral twice weekly, eribulin IV three times weekly, 12 days. On the procedure:
as §1, §2, §3

In assay [7] the test system is HMVEC capillary tube formation. In words: HMVEC capillary tube formation assay. The class given is cell-based. The note with it: Homo sapiens, ANG1-stimulated, 18 hours, read-out: IC50 value for inhibition of ANG1-stimulated HMVEC capillary tube formation. On the procedure:
HMVEC (Human microvascular endothelial cells; Catalog #PCS-110-010) cells were obtained from the American Type Culture Collection (ATCC, Manassas, Va.). Briefly, cells were grown in EGM-2 MV (Lonza, Walkersville, Md.) at 37 degrees Celsius, 5% CO2, and 95% humidity. Cells were allowed to expand until reaching 90-95% saturation at which point they were subcultured or harvested for assay use.
HMVEC Capillary Tube Formation Assay
HMVEC cells (1.5×10^4 cells/well) mixed with test composition or DMSO control and the appropriate growth factor (ANG1 or ANG2) or control were added to a 96-well tissue-culture treated plate coated with growth-factor reduced Matrigel in 0.1 mL of EBM-2 basal medium (Lonza, Walkersville, Md.). Cells were then incubated for 18 hours at 37 degrees Celsius, 5% CO2, and 95% humidity. Media was then gently aspirated and wells were gently washed with 0.1 mL EBM-2 basal medium. Media was again aspirated and 1 μM Calcein AM solution (Invitrogen, Carlsbad, Calif.) in basal medium was added to each well to fluorescently label live cells. Cells were then incubated for 30 minutes at 37 degrees Celsius, 5% CO2, and 95% humidity. Media was aspirated and wells were gently washed with phosphate-buffered saline twice. […] Data was analyzed using Prism software (GraphPad Software, San Diego, Calif.) to calculate IC50 values.

For a further assay, the target named is T1, TIE2 (Homo sapiens, UniProt Q02763).
T1 construct: V5; expressed in transfected cells; host or cells: CHO-K1 (ATCC CCL-61), transient transfection with Lipofectamine LTX
T1 sequence (Q02763 23-1124): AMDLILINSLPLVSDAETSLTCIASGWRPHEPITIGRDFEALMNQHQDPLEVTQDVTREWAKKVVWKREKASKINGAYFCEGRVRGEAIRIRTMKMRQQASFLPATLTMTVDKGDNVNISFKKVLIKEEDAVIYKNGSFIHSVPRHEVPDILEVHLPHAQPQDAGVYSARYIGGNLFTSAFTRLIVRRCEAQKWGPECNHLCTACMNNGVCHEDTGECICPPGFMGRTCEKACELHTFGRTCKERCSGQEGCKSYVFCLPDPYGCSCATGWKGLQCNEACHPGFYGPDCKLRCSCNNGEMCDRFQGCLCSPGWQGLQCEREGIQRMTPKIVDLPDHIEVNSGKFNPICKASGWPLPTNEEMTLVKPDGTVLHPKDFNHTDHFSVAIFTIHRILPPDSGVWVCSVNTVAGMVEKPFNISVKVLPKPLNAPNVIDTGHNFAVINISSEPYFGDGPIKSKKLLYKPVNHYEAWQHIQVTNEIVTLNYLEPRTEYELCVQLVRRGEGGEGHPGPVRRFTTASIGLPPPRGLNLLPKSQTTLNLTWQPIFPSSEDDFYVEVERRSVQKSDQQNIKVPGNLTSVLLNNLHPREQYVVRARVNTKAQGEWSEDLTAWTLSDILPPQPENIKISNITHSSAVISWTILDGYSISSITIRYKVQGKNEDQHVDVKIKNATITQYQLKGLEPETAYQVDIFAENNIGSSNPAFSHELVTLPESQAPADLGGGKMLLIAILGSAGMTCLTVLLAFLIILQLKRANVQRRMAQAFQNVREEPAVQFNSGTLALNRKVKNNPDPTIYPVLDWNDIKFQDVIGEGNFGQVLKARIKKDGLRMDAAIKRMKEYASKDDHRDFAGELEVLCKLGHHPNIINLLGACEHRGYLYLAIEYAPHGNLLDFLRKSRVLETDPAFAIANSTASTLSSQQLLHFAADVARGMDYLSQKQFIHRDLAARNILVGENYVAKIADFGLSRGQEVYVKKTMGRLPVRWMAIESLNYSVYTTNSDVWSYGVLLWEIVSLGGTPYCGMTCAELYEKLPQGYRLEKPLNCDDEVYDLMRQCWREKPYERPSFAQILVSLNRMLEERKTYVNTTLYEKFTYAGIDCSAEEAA
In words: TIE2-transfected CHO K1 phospho-TIE2 Western blot composition washout assay. It counts as cell-based. The note with it: incubated 2 hours at 0.1 μM-1 μM prior to being washed out. As for the experimental part: CHO-K1 cells (catalog #CCL-61) were obtained from the American Type Culture Collection (ATCC, Manassas, Va.). Briefly, cells were grown in F12K medium supplemented with 10% characterized fetal bovine serum (Invitrogen, Carlsbad, Calif.), 100 units/mL penicillin G, 100 μg/ml streptomycin, and 0.29 mg/mL L-glutamine (Invitrogen, Carlsbad, Calif.) at 37 degrees Celsius, 5% CO2, and 95% humidity. Cells were allowed to expand until reaching 70-95% confluence at which point they were subcultured or harvested for assay use.
TIE2-Transfected CHO K1 Phospho-TIE2 Western Blot Composition Washout Assay
CHO K1 cells (1×10^5 cells/well) were added to a 24-well tissue-culture treated plate in 1 mL of RPMI1640 medium supplemented with 10% characterized fetal bovine serum and 1× non-essential amino acids (Invitrogen, Carlsbad, Calif.). Cells were then incubated overnight at 37 degrees Celsius, 5% CO2, and 95% humidity. Medium was aspirated, and 0.5 mL of medium was added to each well. […] Fluorescence was detected using a Storm 840 phosphorimager (GE Healthcare, Piscataway, N.J.) in fluorescence mode. […] The 160 kDa phospho-TIE2 and total TIE2 bands were quantified using ImageQuant software (GE Healthcare, Piscataway, N.J.). […]

For the molecule `CC(=O)O[C@H]1C(=O)[C@@]2(C)[C@H]([C@H](OC(=O)c3ccccc3)[C@]3(O)C[C@H](OC(=O)[C@H](O)[C@@H](NC(=O)c4ccccc4)c4ccccc4)C(C)=C1C3(C)C)[C@]1(OC(C)=O)CO[C@@H]1C[C@@H]2O` [paclitaxel, reference compound], the “lung metastasis (metastatic lung nodules), FIG. 5” value in assay [1] is “decrease in lung metastasis”. The “TIE2-expressing cell accumulation at the primary tumor (TIE2 staining), FIG. 3” value in assay [2] is on record as “did not decrease TIE2-expressing cell accumulation”. Also, the “primary tumor growth (tumor burden), FIG. 1” value in assay [3] is reported as “tumor growth inhibition”. Moreover, the “macrophage accumulation at the primary tumor (F4/80 staining), FIG. 2” value in assay [4] was “did not decrease macrophage accumulation”.

For the molecule `C=C1C[C@@H]2CC[C@@]34C[C@H]5O[C@H]6[C@@H](O3)[C@H]3O[C@H](CC[C@@H]3O[C@H]6[C@H]5O4)CC(=O)C[C@@H]3[C@@H](OC)[C@@H](C[C@H](O)CN)O[C@H]3C[C@H]3O[C@@H](CC[C@@H]1O2)C[C@@H](C)C3=C` [eribulin], the “survival, FIG. 7” value in assay [5] is listed as “no increase in survival”. The “lung metastasis (metastatic lung nodules), FIG. 6” value in assay [6] is “decrease (or increase at low dose) in lung metastasis”.

Regarding `CNC(=O)c1cc(Oc2ccc(NC(=O)Nc3cc(C(C)(C)C)nn3-c3ccc4ncccc4c3)c(F)c2)ccn1.Cc1ccc(S(=O)(=O)O)cc1` [Compound 1, 1-(3-tert-butyl-1-(quinolin-6-yl)-1H-pyrazol-5-yl)-3-(2-fluoro-4-(2-(methylcarbamoyl)pyridin-4-yloxy)phenyl)urea para-toluene sulfonic acid salt], the “TIE2-expressing cell accumulation at the primary tumor (TIE2 staining), FIG. 3” value in assay [2] is on record as “decrease in TIE2-expressing cell accumulation”. Further, in assay [3], the “primary tumor growth (tumor burden), FIG. 1” value is listed as “tumor growth inhibition”. For the same molecule, the IC50 in assay [7] was 6.9 nM. The “macrophage accumulation at the primary tumor (F4/80 staining), FIG. 2” value in assay [4] is reported as “decrease in macrophage accumulation”. On TIE2, the “duration of >50% inhibition of phospho-TIE2 levels after washout” value was above 24 h. Further, the “inhibition of phospho-TIE2 levels after washout” value on TIE2 (maintained for >24 hours) was above 50%.
